Laboratory results taken from US8835466B2, “Synthesis and uses of pyroglutamic acid derivatives” (Prodimed, S.A., priority 2006, dated 2014).

How the values were obtained:
[1] = tested on: Renca cells (renal cell carcinoma); experiment: Effect of isomers on in vivo tumour growth in mice challenged with Renca cells (Example 7); parameters: species or system Balb/c mice; conditions: for Tumour surface, overall values (Mean) / Tumour surface, overall values (Median) / Tumour volume, overall values (Mean) / Tumour volume, overall values (Median): 260 ng/mouse i.p. days 6, 7, 14
Source text: This assay was made in order to check the effect of each stereoisomer on in vivo tumour growth in mice challenged with Renca cells. Their effect was compared with placebo. The stereoisomers assayed were:
Renca is a renal cell carcinoma originated in Balb/c mouse strain, and therefore syngeneic in mice with Balb/c genetic background [Melder R J et al., Cancer Immunol. Immunother., 2005, 54:535-547; Felluga B et al., 1969, J. Natl. Cancer Inst. 43:319-333]. Renca is considered a moderate immunogenic tumour and used as suitable model for testing immunointervention approaches [Salup R R, et al., 1992, The Journal of Urology, 147:1120-1123].
Renca cells (CLS, Eppelheim, Germany) were maintained in vitro by serial passages every 3-4 days. Cultures were performed with RPMI medium medium (RPMI, 10% foetal calf serum, 2 mM L-glutamine, non essential amino acids, 1 mM sodium pyruvate, 20 mM HEPES, 80 μg/mL gentamycin; all of them were purchased from Sigma, St. Louis, Mo., USA) by seeding 5×10^6 cells onto 75 cm^2 culture flasks. Tumour cells collected from 48 hour cultures upon trypsinization (Sigma, St. Louis, Mo., USA) were used as source of Renca cells for the studies described below.
Each isomer was tested at the dose levels of 260 ng administered on days 6, 7 and 14 after tumour inoculation.
The treatments were given by intraperitoneal route (i.p.). The volume inoculated was 0.2 mL/animal. This route was chosen because it is the one described in the original method [Pérez S, et al., 2003, Clinical Cancer Research. 9:5776-5785].
Tumours were established by subcutaneous inoculation in the right hind flank. Mice (Balb/c) were inoculated with 0.2 mL containing 10^5 viable Renca cells. The day of subcutaneous inoculation will be considered Day 0 of the test.
(§1) Mice were observed daily and the tumour size recorded twice a week. This was carried out by measuring two perpendicular diameters (L/W) with a calliper. These measures were used to obtain both tumour surface and volume: Tumour surface=L×W(mm^2) Tumour volume=L×W^2×½(mm^3)
(§2) Results were expressed as single values and/or as the mean±SD or median from each experimental group.
A case-control study was performed with treated and control mice in order to determine whether differences between isomers and administration of placebo were present. […] The U-test of Mann Withney was chosen for being one of the better known non-parametrical tests, anyway, results for this test are equivalent both to those of Wilcoxon's sum of ranges and Kruskal-Wallis two-groups test.
Due to the high dispersion of data, outlayers (animals beyond percentile 25 or above percentile 75 for tumour surface at day 25) were excluded of the study.

[2] = tested on: Ehrlich tumour cells (murine mammary adenocarcinoma); experiment: Effect of isomers and BLAS on in vivo tumour growth, Ehrlich tumours (Example 9); parameters: species or system Balb/c mice; conditions: for Tumour surface, overall values (Mean) / Tumour surface, overall values (Median) / Tumour volume, overall values (Mean) / Tumour volume, overall values (Median): 260 ng/mouse i.p. days 6, 7 and 14
Source text: This assay was made in order to compare the effect of each stereoisomer on in vivo tumour growth in mice with the effect of the mixture of all of them challenged with Ehlrich tumours. The same products, equipment, reagents, doses, vehicle and route of administration as in example 8 were used.
Mice were inoculated with Ehrlich tumour cells. It was described as a murine mammary adenocarcinoma. Ehrlich tumour is a murine mammary carcinoma originally raised in an outbred mouse, and therefore it belongs to the so-called non-specific tumours (Subiza J L, Viñuela J E, Rodriguez R, Gil J, Figueredo M A, de la Concha. E G. Development of splenic natural suppressor (NS) cells in Ehrlich tumor bearing mice. Int J Cancer, 44:307 315; 1989). It may grow across histocompatibility barriers and therefore is not mouse strain specific (Carry P J, Prescott D M, Ogilvie G K. Resistance to Ehrlich ascites tumor in a strain of dystrophic mice. Cancer Res., 39:2139-2140; 1979).
Ehrlich cells were maintained in vitro by serial passages every 3-4 days. Cultures were performed with RPMI medium medium (RPMI, 10% foetal calf serum, 2 mM L-glutamine, non essential aminoacids, 1 mM sodium pyruvate, 20 mM HEPES, 80 μg/mL gentamycin; all of them were purchased from Sigma, St. Louis, Mo., USA) by seeding 5×10^6 cells onto 75 cm^2 culture flasks. Tumour cells collected from 48 hour cultures were used as source of cells for the studies described below.
Tumours were established by subcutaneous inoculation in the right hind flank. Mice (Balb/c) were inoculated with 0.2 mL containing 2×10^5 viable Ehrlich cells. The day of subcutaneous inoculation will be considered Day 0 of the test.
as §1, §2
A case-control study was performed with treated and control mice in order to determine whether differences between BLAS or each diferent stereoisomer and administration of placebo were present. […] The U-test of Mann Withney was chosen for being one of the better known non-parametrical tests, anyway, results for this test are equivalent both to those of Wilcoxon's sum of ranges and Kruskal-Wallis two-groups test.

[3] = day 11 after tumour inoculation
[4] = day 14 after tumour inoculation
[5] = day 13 after tumour inoculation
[6] = day 16 after tumour inoculation
[7] = day 20 after tumour inoculation
[8] = day 23 after tumour inoculation
[9] = day 29 after tumour inoculation
[10] = day 31 after tumour inoculation
[11] = day 35 after tumour inoculation
[12] = day 38 after tumour inoculation

**Q.** What does the source list for Br.N[C@]1(C[n+]2ccccc2)C[C@H](C(=O)O)NC1=O.[Br-] (single isomer, unassigned; isomer 4) [isomer 4, 3S,5R-1-(3-Amino-5-carboxy-2-oxopyrrolidin-3-ylmethyl)pyridinium bromide hidrobromide]?
**A.** Inhibition of the in vivo growth of the renal cell carcinoma (Renca), in words ([1]; 260 ng i.p. days 6, 7, 14): inhibit the in vivo growth; Inhibitory effect on Renca tumour growth compared among isomers, in words ([1]; 260 ng i.p. days 6, 7, 14): highest inhibitory effect; Tumour surface, overall values (Mean) ([1]; day 0 after tumour inoculation): 0 mm^2; Tumour surface, overall values (Median) ([1]; day 0 after tumour inoculation): 0 mm^2; Tumour volume, overall values (Mean) ([1]; day 0 after tumour inoculation): 0 mm^3; Tumour volume, overall values (Median) ([1]; day 0 after tumour inoculation): 0 mm^3; Tumour surface, overall values (Mean) [1, 3]: 0 mm^2; Tumour surface, overall values (Median) [1, 3]: 0 mm^2; Tumour volume, overall values (Mean) [1, 3]: 0 mm^3; Tumour volume, overall values (Median) [1, 3]: 0 mm^3; Tumour surface, overall values (Median) [1, 4]: 0 mm^2; Tumour volume, overall values (Median) [1, 4]: 0 mm^3; Tumour surface, overall values (Median) ([1]; day 18 after tumour inoculation): 9 mm^2; Differences in Renca tumour growth rate vs. placebo, statistical significance p (Mann-Whitney U test) ([1]; either in surface or volume, all days scored after the day 14th): < 0.01; Inhibition of the in vivo growth of Ehrlich tumour cells, in words ([2]; 260 ng i.p. days 6, 7 and 14): inhibit the in vivo growth; Tumour surface, overall values (Mean) ([2]; day 0 after tumour inoculation): 0 mm^2; Tumour surface, overall values (Median) ([2]; day 0 after tumour inoculation): 0 mm^2; Tumour volume, overall values (Mean) ([2]; day 0 after tumour inoculation): 0 mm^3; Tumour volume, overall values (Median) ([2]; day 0 after tumour inoculation): 0 mm^3; Tumour surface, overall values (Mean) ([2]; day 8 after tumour inoculation): 3.37 mm^2; Tumour surface, overall values (Median) ([2]; day 8 after tumour inoculation): 0 mm^2; Tumour volume, overall values (Mean) ([2]; day 8 after tumour inoculation): 5.94 mm^3; Tumour volume, overall values (Median) ([2]; day 8 after tumour inoculation): 0 mm^3; Tumour surface, overall values (Mean) [2, 5]: 12.44 mm^2; Tumour surface, overall values (Median) [2, 5]: 12.5 mm^2; Tumour volume, overall values (Mean) [2, 5]: 26.91 mm^3; Tumour volume, overall values (Median) [2, 5]: 22.75 mm^3; Tumour surface, overall values (Mean) [2, 6]: 20.19 mm^2; Tumour surface, overall values (Median) [2, 6]: 18 mm^2; Tumour volume, overall values (Mean) [2, 6]: 50.34 mm^3; Tumour volume, overall values (Median) [2, 6]: 36 mm^3; Tumour surface, overall values (Mean) [2, 7]: 31.31 mm^2; Tumour surface, overall values (Median) [2, 7]: 27.5 mm^2; Tumour volume, overall values (Mean) [2, 7]: 95.59 mm^3; Tumour volume, overall values (Median) [2, 7]: 68.75 mm^3; Tumour surface, overall values (Mean) [2, 8]: 43.06 mm^2; Tumour surface, overall values (Median) [2, 8]: 39 mm^2; Tumour volume, overall values (Mean) [2, 8]: 156.53 mm^3; Tumour volume, overall values (Median) [2, 8]: 117 mm^3; Tumour surface, overall values (Mean) [2, 9]: 52.94 mm^2; Tumour surface, overall values (Median) [2, 9]: 45 mm^2; Tumour volume, overall values (Mean) [2, 9]: 214.91 mm^3; Tumour volume, overall values (Median) [2, 9]: 135 mm^3; Tumour surface, overall values (Mean) [2, 10]: 63.12 mm^2; Tumour surface, overall values (Median) [2, 10]: 48.5 mm^2; Tumour volume, overall values (Mean) [2, 10]: 274.94 mm^3; Tumour volume, overall values (Median) [2, 10]: 157.75 mm^3; Tumour surface, overall values (Mean) [2, 11]: 76.31 mm^2; Tumour surface, overall values (Median) [2, 11]: 52.5 mm^2; Tumour volume, overall values (Mean) [2, 11]: 379.72 mm^3; Tumour volume, overall values (Median) [2, 11]: 183.75 mm^3; Tumour surface, overall values (Mean) [2, 12]: 91.56 mm^2; Tumour surface, overall values (Median) [2, 12]: 68 mm^2; Tumour volume, overall values (Mean) [2, 12]: 504.22 mm^3; Tumour volume, overall values (Median) [2, 12]: 272 mm^3; Differences in Ehrlich tumour growth rate vs. placebo, statistical significance p (Mann-Whitney U test) ([2]; either in surface or volume, all days scored after the day 8th): < 0.05; Ehrlich tumour growth vs. placebo, tendency p ([2]; surface, day 35th): 0.061; Ehrlich tumour growth vs. placebo, tendency p ([2]; surface, day 38th): 0.08; Ehrlich tumour growth vs. placebo, tendency p ([2]; volume, days 35th and 38th (both of them)): 0.102
